In ChEMBL document CHEMBL1141668, “Synthesis and biological activity of imidazopyridine anticoccidial agents: Part II” (Eur J Med Chem, 2008):
Values belong to the molecule of their own block, whether it stands above or below them.

How the values were obtained:
[1] = target: cGMP-dependent protein kinase (Eimeria tenella, UniProt Q8MMZ8); experiment: Inhibition of Eimeria tenella cGMP-dependent protein kinase
Eimeria maxima [2] = experiment: Anticoccidial activity against Eimeria maxima in chickens assessed as reduction of oocysts at 12.5 ppm measured after 8 days by ExMAC assay relative to untreated control; format: functional; set-up: scale not given: the % may be the effect or the level left
Eimeria mitis [3] = experiment: Anticoccidial activity against Eimeria mitis in chickens assessed as reduction of oocysts at 6.25 ppm measured after 8 days by ExMAC assay relative to untreated control; format: functional; set-up: scale not given: the % may be the effect or the level left
Eimeria acervulina [4] = experiment: Anticoccidial activity against Eimeria acervulina in chickens assessed as reduction of oocysts at 25 ppm measured after 8 days by ExMAC assay relative to untreated control; format: functional; set-up: scale not given: the % may be the effect or the level left
Eimeria tenella [5] = experiment: Anticoccidial activity against Eimeria tenella in chickens assessed as reduction of oocysts at 25 ppm measured after 8 days by ExMAC assay relative to untreated control; format: functional; set-up: scale not given: the % may be the effect or the level left
Eimeria acervulina [6] = experiment: Anticoccidial activity against Eimeria acervulina in chickens assessed as reduction of oocysts at 6.25 ppm measured after 8 days by ExMAC assay relative to untreated control; format: functional; set-up: scale not given: the % may be the effect or the level left
Eimeria mitis [7] = experiment: Anticoccidial activity against Eimeria mitis in chickens assessed as reduction of oocysts at 25 ppm measured after 8 days by ExMAC assay relative to untreated control; format: functional; set-up: scale not given: the % may be the effect or the level left
Eimeria tenella [8] = experiment: Anticoccidial activity against Eimeria tenella in chickens assessed as reduction of oocysts at 6.25 ppm measured after 8 days by ExMAC assay relative to untreated control; format: functional; set-up: scale not given: the % may be the effect or the level left
Eimeria mitis [9] = experiment: Anticoccidial activity against Eimeria mitis in chickens assessed as reduction of oocysts at 12.5 ppm measured after 8 days by ExMAC assay relative to untreated control; format: functional; set-up: scale not given: the % may be the effect or the level left
Eimeria tenella [10] = experiment: Anticoccidial activity against Eimeria tenella in chickens assessed as reduction of oocysts at 12.5 ppm measured after 8 days by ExMAC assay relative to untreated control; format: functional; set-up: scale not given: the % may be the effect or the level left
Eimeria maxima [11] = experiment: Anticoccidial activity against Eimeria maxima in chickens assessed as reduction of oocysts at 6.25 ppm measured after 8 days by ExMAC assay relative to untreated control; format: functional; set-up: scale not given: the % may be the effect or the level left
Eimeria acervulina [12] = experiment: Anticoccidial activity against Eimeria acervulina in chickens assessed as reduction of oocysts at 12.5 ppm measured after 8 days by ExMAC assay relative to untreated control; format: functional; set-up: scale not given: the % may be the effect or the level left
Eimeria maxima [13] = experiment: Anticoccidial activity against Eimeria maxima in chickens assessed as reduction of oocysts at 25 ppm measured after 8 days by ExMAC assay relative to untreated control; format: functional; set-up: scale not given: the % may be the effect or the level left

Sequence of cGMP-dependent protein kinase (Q8MMZ8 whole entry): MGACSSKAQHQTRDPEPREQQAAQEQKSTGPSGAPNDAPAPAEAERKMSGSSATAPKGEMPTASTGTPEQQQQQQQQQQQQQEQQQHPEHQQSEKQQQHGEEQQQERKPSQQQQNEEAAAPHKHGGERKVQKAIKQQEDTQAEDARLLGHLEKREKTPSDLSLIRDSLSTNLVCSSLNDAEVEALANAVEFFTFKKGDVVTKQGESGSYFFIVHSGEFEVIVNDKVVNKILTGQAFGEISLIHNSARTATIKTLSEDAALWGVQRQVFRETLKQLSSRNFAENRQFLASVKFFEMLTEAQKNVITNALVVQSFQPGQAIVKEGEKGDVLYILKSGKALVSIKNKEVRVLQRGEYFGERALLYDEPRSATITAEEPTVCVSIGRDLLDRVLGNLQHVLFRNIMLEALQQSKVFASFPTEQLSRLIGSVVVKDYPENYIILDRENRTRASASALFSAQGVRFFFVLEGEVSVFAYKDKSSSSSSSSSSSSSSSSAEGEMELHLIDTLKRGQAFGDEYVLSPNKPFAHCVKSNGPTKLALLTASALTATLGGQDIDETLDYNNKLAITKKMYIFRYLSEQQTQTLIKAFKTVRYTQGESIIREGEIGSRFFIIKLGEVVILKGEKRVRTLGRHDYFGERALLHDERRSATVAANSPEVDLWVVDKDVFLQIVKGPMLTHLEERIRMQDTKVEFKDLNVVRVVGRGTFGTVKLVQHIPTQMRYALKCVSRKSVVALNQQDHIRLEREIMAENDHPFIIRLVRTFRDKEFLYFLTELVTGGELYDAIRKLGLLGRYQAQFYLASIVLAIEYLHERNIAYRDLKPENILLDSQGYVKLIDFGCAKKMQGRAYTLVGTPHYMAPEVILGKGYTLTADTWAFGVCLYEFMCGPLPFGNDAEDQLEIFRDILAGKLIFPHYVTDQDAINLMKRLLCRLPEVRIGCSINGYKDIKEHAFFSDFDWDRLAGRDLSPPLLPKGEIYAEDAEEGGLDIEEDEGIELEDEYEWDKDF

Compound: CC(C)CN1CCC(c2ccn3c(-c4ccnc(N)n4)c(-c4ccc(F)cc4)nc3c2)CC1
IC50 [1]: 120 pM
Activity (Eimeria maxima [2]): 100%
Activity (Eimeria mitis [3]): <50%
Activity (Eimeria acervulina [4]): 100%
Activity (Eimeria tenella [5]): 80%
Activity (Eimeria acervulina [6]): 80%
Activity (Eimeria mitis [7]): 80%
Activity (Eimeria tenella [8]): 50%
Activity (Eimeria mitis [9]): 80%
Activity (Eimeria tenella [10]): 100%
Activity (Eimeria maxima [11]): <50%
Activity (Eimeria acervulina [12]): 80%
Activity (Eimeria maxima [13]): 80%

Compound: CCCCCCN1CCC(c2ccn3c(-c4ccnc(N)n4)c(-c4ccc(F)cc4)nc3c2)CC1
IC50 [1]: 130 pM
Activity (Eimeria mitis [9]): <50%
Activity (Eimeria tenella [10]): 50%
Activity (Eimeria acervulina [12]): <50%

Compound: Nc1nccc(-c2c(-c3ccc(F)cc3)nc3cc(C4CCN(Cc5ccccc5)CC4)ccn23)n1
IC50 [1]: 110 pM
Activity (Eimeria maxima [2]): 80%
Activity (Eimeria mitis [3]): <50%
Activity (Eimeria acervulina [4]): <50%
Activity (Eimeria tenella [5]): 80%
Activity (Eimeria acervulina [6]): <50%
Activity (Eimeria mitis [7]): <50%
Activity (Eimeria tenella [8]): <50%
Activity (Eimeria mitis [9]): <50%
Activity (Eimeria tenella [10]): 80%
Activity (Eimeria maxima [11]): 80%
Activity (Eimeria acervulina [12]): 80%
Activity (Eimeria maxima [13]): 100%

Compound: CC(C)(C)CCN1CCC(c2ccn3c(-c4ccnc(N)n4)c(-c4ccc(F)cc4)nc3c2)CC1
IC50 [1]: 110 pM
Activity (Eimeria mitis [9]): <50%
Activity (Eimeria tenella [10]): 80%
Activity (Eimeria acervulina [12]): <50%

Compound: Nc1nccc(-c2c(-c3ccc(F)cc3)nc3cc(C4CCN(CCCO)CC4)ccn23)n1
IC50 [1]: 65 pM
Activity (Eimeria maxima [2]): <50%
Activity (Eimeria mitis [3]): <50%
Activity (Eimeria acervulina [4]): 80%
Activity (Eimeria tenella [5]): 100%
Activity (Eimeria acervulina [6]): 50%
Activity (Eimeria mitis [7]): <50%
Activity (Eimeria tenella [8]): <50%
Activity (Eimeria mitis [9]): <50%
Activity (Eimeria tenella [10]): 100%
Activity (Eimeria maxima [11]): <50%
Activity (Eimeria acervulina [12]): 50%
Activity (Eimeria maxima [13]): <50%

Compound: CN1CCN(c2ccn3c(-c4ccnc(N)n4)c(-c4ccc(F)cc4)nc3c2)CC1
IC50 [1]: 230 pM
Activity (Eimeria maxima [2]): <50%
Activity (Eimeria mitis [3]): 50%
Activity (Eimeria acervulina [4]): <50%
Activity (Eimeria tenella [5]): 80%
Activity (Eimeria acervulina [6]): <50%
Activity (Eimeria mitis [7]): 80%
Activity (Eimeria tenella [8]): <50%
Activity (Eimeria mitis [9]): 50%
Activity (Eimeria tenella [10]): 80%
Activity (Eimeria maxima [11]): <50%
Activity (Eimeria acervulina [12]): <50%
Activity (Eimeria maxima [13]): 100%

Compound: CCC(C)CN1CCC(c2ccn3c(-c4ccnc(N)n4)c(-c4ccc(F)cc4)nc3c2)CC1 (stereo not drawn)
IC50 [1]: 130 pM
Activity (Eimeria mitis [9]): <50%
Activity (Eimeria tenella [10]): 80%
Activity (Eimeria acervulina [12]): 80%

Compound: Nc1nccc(-c2c(-c3ccc(F)cc3)nc3cc(C4CCNCC4)ccn23)n1
IC50 [1]: 46 pM
Activity (Eimeria acervulina [4]): <50%
Activity (Eimeria tenella [5]): <50%
Activity (Eimeria mitis [7]): <50%
Activity (Eimeria maxima [13]): 100%

Compound: CC(C)(CN)c1ccn2c(-c3ccnc(N)n3)c(-c3ccc(F)cc3)nc2c1
IC50 [1]: 260 pM
Activity (Eimeria acervulina [4]): <50%
Activity (Eimeria tenella [5]): 50%
Activity (Eimeria mitis [7]): 50%
Activity (Eimeria maxima [13]): <50%

Compound: Nc1nccc(-c2c(-c3ccc(F)cc3)nc3cc(C4CCN(CCc5ccccc5)CC4)ccn23)n1
IC50 [1]: 70 pM
Activity (Eimeria mitis [9]): <50%
Activity (Eimeria tenella [10]): <50%
Activity (Eimeria acervulina [12]): <50%

Compound: CNC(=O)c1ccn2c(-c3ccnc(N)n3)c(-c3ccc(F)cc3)nc2c1
IC50 [1]: 3100 pM
Activity (Eimeria acervulina [4]): <50%
Activity (Eimeria tenella [5]): <50%
Activity (Eimeria mitis [7]): <50%
Activity (Eimeria maxima [13]): 50%

Compound: CN(C)Cc1ccn2c(-c3ccnc(N)n3)c(-c3ccc(F)cc3)nc2c1
Activity (Eimeria maxima [2]): 80%
Activity (Eimeria mitis [3]): <50%
Activity (Eimeria acervulina [4]): 80%
Activity (Eimeria tenella [5]): 80%
Activity (Eimeria acervulina [6]): 80%
Activity (Eimeria mitis [7]): 80%
Activity (Eimeria tenella [8]): 80%
Activity (Eimeria mitis [9]): 80%
Activity (Eimeria tenella [10]): 80%
Activity (Eimeria maxima [11]): <50%
Activity (Eimeria acervulina [12]): 80%
Activity (Eimeria maxima [13]): 80%

Compound: CCCC(C)CN1CCC(c2ccn3c(-c4ccnc(N)n4)c(-c4ccc(F)cc4)nc3c2)CC1 (stereo not drawn)
IC50 [1]: 120 pM
Activity (Eimeria mitis [9]): <50%
Activity (Eimeria tenella [10]): 80%
Activity (Eimeria acervulina [12]): <50%

More lines, main results first:

IC50 [1]: 260 pM
Compound: COCCN(C)Cc1ccn2c(-c3ccnc(N)n3)c(-c3ccc(F)cc3)nc2c1
Activity (Eimeria maxima [2]): <50%
Activity (Eimeria mitis [9]): <50%
Activity (Eimeria tenella [10]): <50%
Activity (Eimeria acervulina [12]): <50%

IC50 [1]: 3000 pM
Compound: CN(C)c1ccn2c(-c3ccnc(N)n3)c(-c3ccc(F)cc3)nc2c1
Activity (Eimeria maxima [2]): 80%
Activity (Eimeria mitis [3]): <50%
Activity (Eimeria acervulina [4]): 80%
Activity (Eimeria tenella [5]): 80%
Activity (Eimeria acervulina [6]): <50%
Activity (Eimeria mitis [7]): <50%
Activity (Eimeria tenella [8]): <50%
Activity (Eimeria mitis [9]): <50%
Activity (Eimeria tenella [10]): 50%
Activity (Eimeria maxima [11]): <50%
Activity (Eimeria acervulina [12]): <50%
Activity (Eimeria maxima [13]): 80%

IC50 [1]: 400 pM
Compound: CCC(CN(C)C)c1ccn2c(-c3ccnc(N)n3)c(-c3ccc(F)cc3)nc2c1 (stereo not drawn)
Activity (Eimeria acervulina [4]): <50%
Activity (Eimeria tenella [5]): 100%
Activity (Eimeria mitis [7]): <50%
Activity (Eimeria maxima [13]): 100%

IC50 [1]: 650 pM
Compound: C#CCN(C)Cc1ccn2c(-c3ccnc(N)n3)c(-c3ccc(F)cc3)nc2c1
Activity (Eimeria maxima [2]): <50%
Activity (Eimeria mitis [9]): <50%
Activity (Eimeria tenella [10]): <50%
Activity (Eimeria acervulina [12]): <50%

IC50 [1]: 170 pM
Compound: CCN(CC)Cc1ccn2c(-c3ccnc(N)n3)c(-c3ccc(F)cc3)nc2c1
Activity (Eimeria maxima [2]): 80%
Activity (Eimeria mitis [3]): 50%
Activity (Eimeria acervulina [4]): 50%
Activity (Eimeria tenella [5]): 80%
Activity (Eimeria acervulina [6]): <50%
Activity (Eimeria mitis [7]): 80%
Activity (Eimeria tenella [8]): <50%
Activity (Eimeria mitis [9]): <50%
Activity (Eimeria tenella [10]): 80%
Activity (Eimeria maxima [11]): <50%
Activity (Eimeria acervulina [12]): 50%
Activity (Eimeria maxima [13]): 80%

IC50 [1]: 590 pM
Compound: CN(C)CC(F)c1ccn2c(-c3ccnc(N)n3)c(-c3ccc(F)cc3)nc2c1 (stereo not drawn)
Activity (Eimeria maxima [2]): 100%
Activity (Eimeria mitis [3]): <50%
Activity (Eimeria acervulina [4]): 100%
Activity (Eimeria tenella [5]): 100%
Activity (Eimeria acervulina [6]): <50%
Activity (Eimeria mitis [7]): 100%
Activity (Eimeria tenella [8]): 80%
Activity (Eimeria mitis [9]): 50%
Activity (Eimeria tenella [10]): 80%
Activity (Eimeria maxima [11]): 100%
Activity (Eimeria acervulina [12]): 80%
Activity (Eimeria maxima [13]): 100%

IC50 [1]: 2200 pM
Compound: CN1CCN(Cc2ccn3c(-c4ccnc(N)n4)c(-c4ccc(F)cc4)nc3c2)CC1
Activity (Eimeria maxima [2]): <50%
Activity (Eimeria acervulina [4]): <50%
Activity (Eimeria tenella [5]): 80%
Activity (Eimeria mitis [7]): 80%
Activity (Eimeria mitis [9]): <50%
Activity (Eimeria tenella [10]): <50%
Activity (Eimeria acervulina [12]): <50%
Activity (Eimeria maxima [13]): 80%

IC50 [1]: 2500 pM
Compound: CN(C)C(=N)c1ccn2c(-c3ccnc(N)n3)c(-c3ccc(F)cc3)nc2c1
Activity (Eimeria acervulina [4]): 50%
Activity (Eimeria tenella [5]): <50%
Activity (Eimeria mitis [7]): <50%
Activity (Eimeria maxima [13]): <50%

IC50 [1]: 400 pM
Compound: CN(CCO)Cc1ccn2c(-c3ccnc(N)n3)c(-c3ccc(F)cc3)nc2c1
Activity (Eimeria maxima [2]): <50%
Activity (Eimeria mitis [9]): <50%
Activity (Eimeria tenella [10]): <50%
Activity (Eimeria acervulina [12]): <50%

IC50 [1]: 350 pM
Compound: CC(C)(C)NCc1ccn2c(-c3ccnc(N)n3)c(-c3ccc(F)cc3)nc2c1

IC50 [1]: 1330 pM
Compound: CN(CC#N)Cc1ccn2c(-c3ccnc(N)n3)c(-c3ccc(F)cc3)nc2c1
Activity (Eimeria acervulina [4]): 80%
Activity (Eimeria tenella [5]): 80%
Activity (Eimeria mitis [7]): <50%
Activity (Eimeria maxima [13]): <50%
